The values that follow come from ChEMBL document CHEMBL4052685, “Design, synthesis and tumor cell growth inhibitory activity of 3-nitro-2H-cheromene derivatives as histone deacetylaes inhibitors” (Bioorg Med Chem, 2017).

Each structure is given as a SMILES string.

Test [1] deals with PC-3. Description: Antiproliferative activity against human PC3 cells after 48 hrs by MTT assay. The test is classed as functional.
The subject of test [2] is K562. The test is described as follows: Antiproliferative activity against human K562 cells after 48 hrs by MTT assay. The test is classed as functional. (Formazan colour is commonly taken as a measure of viable cells.)
The subject of test [3] is MCF7. Description: Antiproliferative activity against human MCF7 cells after 48 hrs by MTT assay. The test is classed as functional.
Test [4] concerns A549. Description: Antiproliferative activity against human A549 cells after 48 hrs by MTT assay. Type of test: functional.
Test [5] deals with HeLa. The test is described as follows: Antiproliferative activity against human HeLa cells after 48 hrs by MTT assay. Type of test: functional.
The target in test [6] is T1, Histone deacetylase 2 (Homo sapiens, UniProt Q92769). Conditions: at 10 µM.
Description: Inhibition of HDAC2 (unknown origin) at 10 uM using Ac-Leu-GlyLys(Ac)-AMC as substrate preincubated for 10 mins followed by substrate addition measured after 30 mins by fluorescence analysis
Test [7] addresses Histone deacetylase 1 (Homo sapiens, UniProt Q13547). The test is described as follows: Inhibition of HDAC1 (unknown origin) using Ac-Leu-GlyLys(Ac)-AMC as substrate preincubated for 10 mins followed by substrate addition measured after 30 mins by fluorescence analysis.
Test [8] addresses T1, Histone deacetylase 2. The test is described as follows: Inhibition of HDAC2 (unknown origin) using Ac-Leu-GlyLys(Ac)-AMC as substrate preincubated for 10 mins followed by substrate addition measured after 30 mins by fluorescence analysis.

Chain of Histone deacetylase 1 (Q13547 whole entry): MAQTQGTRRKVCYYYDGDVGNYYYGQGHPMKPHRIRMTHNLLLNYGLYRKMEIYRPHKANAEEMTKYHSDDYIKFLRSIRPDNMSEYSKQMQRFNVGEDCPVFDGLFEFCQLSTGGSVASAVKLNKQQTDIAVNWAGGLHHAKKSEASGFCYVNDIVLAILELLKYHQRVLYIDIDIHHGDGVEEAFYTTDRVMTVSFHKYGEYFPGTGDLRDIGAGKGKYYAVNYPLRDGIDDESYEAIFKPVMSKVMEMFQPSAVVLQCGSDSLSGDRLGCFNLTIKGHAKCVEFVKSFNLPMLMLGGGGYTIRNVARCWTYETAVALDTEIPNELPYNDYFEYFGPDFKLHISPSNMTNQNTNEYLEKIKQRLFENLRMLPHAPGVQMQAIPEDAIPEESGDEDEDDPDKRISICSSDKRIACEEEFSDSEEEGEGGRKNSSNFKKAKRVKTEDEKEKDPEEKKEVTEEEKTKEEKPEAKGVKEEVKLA
T1 sequence (Q92769 whole entry): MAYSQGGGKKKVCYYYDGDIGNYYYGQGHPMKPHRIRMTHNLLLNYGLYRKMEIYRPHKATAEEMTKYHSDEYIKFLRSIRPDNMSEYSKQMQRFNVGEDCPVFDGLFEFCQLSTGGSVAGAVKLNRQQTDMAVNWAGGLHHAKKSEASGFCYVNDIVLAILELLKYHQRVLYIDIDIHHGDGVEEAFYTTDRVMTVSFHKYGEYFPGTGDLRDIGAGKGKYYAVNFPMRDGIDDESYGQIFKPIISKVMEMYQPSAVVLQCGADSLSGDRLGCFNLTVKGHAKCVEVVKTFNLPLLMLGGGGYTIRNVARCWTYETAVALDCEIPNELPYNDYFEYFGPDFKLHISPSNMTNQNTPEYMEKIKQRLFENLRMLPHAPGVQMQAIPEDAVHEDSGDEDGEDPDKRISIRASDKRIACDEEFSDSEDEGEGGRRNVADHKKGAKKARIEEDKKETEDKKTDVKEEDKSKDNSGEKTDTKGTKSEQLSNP

With `CCOc1cc(NC(=O)CCCCCCC(=O)Nc2cc(-c3ccc(C)s3)ccc2N)cc2c1OCC([N+](=O)[O-])=C2`, the GI50 in test [1] (Homo sapiens, PC-3, 48 h) is 6.36 µM; in test [2] (Homo sapiens, K562, 48 h) it was 3.11 µM; in test [3] (Homo sapiens, MCF7, 48 h), 5.33 µM; in test [4] (Homo sapiens, A549, 48 h), 5.83 µM; in test [5] (Homo sapiens, HeLa, 48 h), greater than 20 µM. The compound further came in with an inhibition in test [6] of 55%.
Consider `CCOc1cc(NC(=O)CCCCCC(=O)NCCc2ccccc2)cc2c1OCC([N+](=O)[O-])=C2`, for which the GI50 is 7.09 µM in test [1] (Homo sapiens, PC-3, 48 h); 3.47 µM in test [2] (Homo sapiens, K562, 48 h); 6.12 µM in test [3] (Homo sapiens, MCF7, 48 h); 5.32 µM in test [4] (Homo sapiens, A549, 48 h); 6.08 µM in test [5] (Homo sapiens, HeLa, 48 h). Moreover, the inhibition in test [6] worked out at 0%.
As to `CCOc1cc(NC(=O)CCCCC(=O)Nc2ccccc2N)cc2c1OCC([N+](=O)[O-])=C2`, the 50% growth inhibitory concentration (GI50) in test [1] (Homo sapiens, PC-3, 48 h) is 18.9 µM; in test [2] (Homo sapiens, K562, 48 h), 3.68 µM; in test [3] (Homo sapiens, MCF7, 48 h), 17.3 µM; in test [4] (Homo sapiens, A549, 48 h), 9.63 µM; in test [5] (Homo sapiens, HeLa, 48 h) it was 13.1 µM. Further, the inhibition in test [6] came to 91%.
`CCOc1cc(NC(=O)CCCCC(=O)Nc2cc(-c3ccccc3)ccc2N)cc2c1OCC([N+](=O)[O-])=C2`: the GI50 in test [1] (Homo sapiens, PC-3, 48 h) is 14.6 µM; in test [2] (Homo sapiens, K562, 48 h) it was 5.27 µM; in test [3] (Homo sapiens, MCF7, 48 h) it was 19.9 µM; in test [4] (Homo sapiens, A549, 48 h), 7.46 µM; in test [5] (Homo sapiens, HeLa, 48 h) it was greater than 20 µM. The compound further returned an inhibition in test [6] of 59%.
Turning to `CCOc1cc(NC(=O)CCCCC(=O)NCCc2ccccc2)cc2c1OCC([N+](=O)[O-])=C2`, the concentration for 50% growth inhibition (GI50) in test [1] (Homo sapiens, PC-3, 48 h) came to 6.46 µM; in test [2] (Homo sapiens, K562, 48 h), 2.9 µM; in test [3] (Homo sapiens, MCF7, 48 h) it was 2.82 µM; in test [4] (Homo sapiens, A549, 48 h) it was 6.42 µM; in test [5] (Homo sapiens, HeLa, 48 h), 9.33 µM. The inhibition in test [6] turned out to be 3%.
Turning to `CCOc1cc(NC(=O)CCCCCNC(=O)Cc2ccccc2)cc2c1OCC([N+](=O)[O-])=C2`, the GI50 in test [1] (Homo sapiens, PC-3, 48 h) was determined as 13.2 µM; in test [2] (Homo sapiens, K562, 48 h), 1.53 µM; in test [3] (Homo sapiens, MCF7, 48 h), 4.17 µM; in test [4] (Homo sapiens, A549, 48 h) it was 4.8 µM; in test [5] (Homo sapiens, HeLa, 48 h), 5.8 µM. The compound further had an inhibition in test [6] of 0%.
Take `O=C(CCCCCCC(=O)Nc1ccccc1)NO` [VORINOSTAT]: the GI50 is 18.8 µM in test [1]; 3.66 µM in test [2]; 17.9 µM in test [3]; 19.4 µM in test [4]; 19.2 µM in test [5].
For the compound `CCOc1cc(NC(=O)CCCCCCC(=O)Nc2cc(-c3ccccc3)ccc2N)cc2c1OCC([N+](=O)[O-])=C2`, the GI50 in test [1] (Homo sapiens, PC-3, 48 h) came to 10.7 µM; in test [2] (Homo sapiens, K562, 48 h), 2 µM; in test [3] (Homo sapiens, MCF7, 48 h), 9.37 µM; in test [4] (Homo sapiens, A549, 48 h), 5.4 µM; in test [5] (Homo sapiens, HeLa, 48 h), 16.2 µM. Besides, the half-maximal inhibitory concentration (IC50) in test [7] stood at 0.179 µM; in test [8], 0.827 µM. The compound further registered an inhibition in test [6] of 72%.
As to `CCOc1cc(NC(=O)CCCCCNC(=O)[C@H](N)Cc2ccccc2)cc2c1OCC([N+](=O)[O-])=C2`, the IC50 in test [7] was found to be 0.448 µM; in test [8], 1.29 µM.
On to `CCOc1cc(NC(=O)CCCCCC(=O)Nc2cc(-c3ccc(C)s3)ccc2N)cc2c1OCC([N+](=O)[O-])=C2`, for which the GI50 is 11.4 µM in test [1] (Homo sapiens, PC-3, 48 h); 2.92 µM in test [2] (Homo sapiens, K562, 48 h); greater than 20 µM in test [3] (Homo sapiens, MCF7, 48 h); 5.07 µM in test [4] (Homo sapiens, A549, 48 h); greater than 20 µM in test [5] (Homo sapiens, HeLa, 48 h). The results for the IC50 in test [7] and in test [8] were 0.366 µM and 1.79 µM, respectively. In test [6], the inhibition stood at 62%.
For the compound `CCOc1cc(NC(=O)CCCCCCC(=O)NCCc2ccccc2)cc2c1OCC([N+](=O)[O-])=C2`, the GI50 in test [1] (Homo sapiens, PC-3, 48 h) was 10.9 µM; in test [2] (Homo sapiens, K562, 48 h), 4.12 µM; in test [3] (Homo sapiens, MCF7, 48 h) it was 19.1 µM; in test [4] (Homo sapiens, A549, 48 h) it was 18.2 µM; in test [5] (Homo sapiens, HeLa, 48 h), greater than 20 µM. This compound registered an inhibition in test [6] of 8%.
For `Nc1ccccc1NC(=O)c1ccc(CNC(=O)OCc2cccnc2)cc1` [ENTINOSTAT], the GI50 in test [1] (Homo sapiens, PC-3, 48 h) was found to be 19.1 µM; in test [2] (Homo sapiens, K562, 48 h), 9.32 µM; in test [3] (Homo sapiens, MCF7, 48 h), 19.3 µM; in test [4] (Homo sapiens, A549, 48 h) it was 18.4 µM; in test [5] (Homo sapiens, HeLa, 48 h), 19.2 µM. Besides, the inhibition in test [6] was found to be 98%.
As to `CCOc1cc(NC(=O)CCCCNC(=O)[C@H](N)Cc2ccccc2)cc2c1OCC([N+](=O)[O-])=C2`, the GI50 is 11.2 µM in test [1] (Homo sapiens, PC-3, 48 h); 3.56 µM in test [2] (Homo sapiens, K562, 48 h); 8.72 µM in test [3] (Homo sapiens, MCF7, 48 h); 5.95 µM in test [4] (Homo sapiens, A549, 48 h); greater than 20 µM in test [5] (Homo sapiens, HeLa, 48 h). For the same compound, the figures for the IC50 in test [7] and in test [8] were 0.742 µM and 2.91 µM, respectively. Besides, the inhibition in test [6] is 90%.
As to `CCOc1cc(NC(=O)CCCCCCC(=O)Nc2ccccc2N)cc2c1OCC([N+](=O)[O-])=C2`, the GI50 in test [1] (Homo sapiens, PC-3, 48 h) is 8.63 µM; in test [2] (Homo sapiens, K562, 48 h), 3.36 µM; in test [3] (Homo sapiens, MCF7, 48 h), 13.5 µM; in test [4] (Homo sapiens, A549, 48 h), 11.7 µM; in test [5] (Homo sapiens, HeLa, 48 h) it was greater than 20 µM. Moreover, the IC50 was determined as 0.232 µM in test [7] and 0.439 µM in test [8]. In test [6], this compound gave an inhibition of 93%.
Regarding `CCOc1cc(NC(=O)CCCCC(=O)Nc2cc(-c3ccc(C)s3)ccc2N)cc2c1OCC([N+](=O)[O-])=C2`, the GI50 amounted to 13.5 µM in test [1] (Homo sapiens, PC-3, 48 h); 2.94 µM in test [2] (Homo sapiens, K562, 48 h); 7.91 µM in test [3] (Homo sapiens, MCF7, 48 h); 13.8 µM in test [4] (Homo sapiens, A549, 48 h); 18.4 µM in test [5] (Homo sapiens, HeLa, 48 h). In addition, the inhibition in test [6] amounted to 32%.
With `CCOc1cc(NC(=O)CCCCCC(=O)Nc2cc(-c3ccccc3)ccc2N)cc2c1OCC([N+](=O)[O-])=C2`, the GI50 in test [1] (Homo sapiens, PC-3, 48 h) came to 7.08 µM; in test [2] (Homo sapiens, K562, 48 h) it was 3.21 µM; in test [3] (Homo sapiens, MCF7, 48 h), 7.03 µM; in test [4] (Homo sapiens, A549, 48 h) it was 4.86 µM; in test [5] (Homo sapiens, HeLa, 48 h), 19.8 µM. Also, the IC50 was 0.128 µM in test [7] and 0.659 µM in test [8]. For the same compound, in test [6], the inhibition is 81%.
In the case of `CCOc1cc(NC(=O)CCCCCC(=O)Nc2ccccc2N)cc2c1OCC([N+](=O)[O-])=C2`, the GI50 is greater than 20 µM in test [1] (Homo sapiens, PC-3, 48 h); 3.96 µM in test [2] (Homo sapiens, K562, 48 h); 19.4 µM in test [3] (Homo sapiens, MCF7, 48 h); 12.2 µM in test [4] (Homo sapiens, A549, 48 h); 14.9 µM in test [5] (Homo sapiens, HeLa, 48 h). In addition, the IC50 worked out at 0.288 µM in test [7] and 0.759 µM in test [8]. This compound came in with an inhibition in test [6] of 96%.
With `CCOc1cc(NC(=O)CCCCCNC(=O)CCCc2ccccc2)cc2c1OCC([N+](=O)[O-])=C2`, the GI50 in test [1] (Homo sapiens, PC-3, 48 h) came to 7.17 µM; in test [2] (Homo sapiens, K562, 48 h), 3.32 µM; in test [3] (Homo sapiens, MCF7, 48 h), 5.96 µM; in test [4] (Homo sapiens, A549, 48 h), 5.23 µM; in test [5] (Homo sapiens, HeLa, 48 h) it was 6.74 µM. Further, the inhibition in test [6] is 8%.

In general, GI50 refers to the concentration at which growth is held to half of that of the control. In general, inhibition refers to the share of the control response that was lost under treatment. Higher therefore signals strong suppression. Broadly, the IC50 is the midpoint of a concentration-inhibition curve. Higher therefore signals a need for much substance.
